These molecules were tested on genotype A, "Long" strain RSV (assay: RSV-A in vitro cytoprotection assay in HEp-2 cells (ATPlite readout of cell viability)). Conditions: human respiratory syncytial virus, HEp-2, HEp-2 cells, genotype A “Long” strain RSV, cytoprotection; read-out: Human RSV-A (“Long” strain) EC50.
Type: cell-based, Human respiratory syncytial virus
Description: RSV is a single stranded negative sense RNA virus that causes respiratory tract infections which can be dangerous to infants, the elderly, and immunosuppressed individuals. Currently there is no vaccine, and therapeutic options are both costly and of limited effectiveness. These approved treatments are Ribavirin, and Palivizumab/Synagis (a monoclonal antibody). RSV has two genotypes, A and B, which differ primarily in the structure of the virus' surface “G” attachment protein. Our current primary screen focuses on RSV-A and uses an in vitro cytoprotection assay where compounds are added in 2-fold dilutions to cells which are then subjected to fully replicative viral particles. Cell viability is measured several days later along with separate measurements of compound cytotoxicity. This report focuses on the results of our most recent screening of compounds.
HEp-2 cells, (originally derived from tumors grown in irradiated-cortisonised weanling rats that had been injected with epidermoid carcinoma tissue from a person's larynx, but later found to be indistinguishable from HeLa cells by PCR DNA analysis), were used for the culturing of genotype A, “Long” strain RSV. Flasks were inoculated with RSV and viral stocks were collected once cytopathic effect (CPE) was greater than 90%. Viral stocks in 25% sucrose media were snap frozen using liquid nitrogen to increase viral stability. Viral stock titers were quantified by tissue culture infectious dose 50% (TCID50) using 8,000 cells per well and 3-fold viral dilutions across a 96-well plate, cultured for 4 days.
Following extensive parameter testing, the final assay is run as follows: HEp-2 cells are seeded into the inner 60 wells of a 96-well plate at 8,000 cells per well in a volume of 50 μL using Growth Media (DMEM without phenol red, 1% L-Glut, 1% Penn/Strep, 1% nonessential amino acids, 10% FBS). 2-Fold serial dilutions of control and test compounds are added to the wells in duplicate in a total volume of 25 μL. Viral stock is then added to the wells in a volume of 25 μL, bringing the total volume of each well to 100 μL. Each 96-well plate has a control column of 6 wells with cells and virus but no compound (negative control, max CPE), a column with cells but no compound or virus (positive control, minimum CPE), and a column with no cells or virus or compound (background plate/reagent control). The control wells with cells but no virus are given an additional 25 uL of growth media containing an equal quantity of sucrose as those wells receiving the viral stock in order to keep consistent in media and volume conditions. The outer wells of the plate are filled with 125 μL of growth media to act as a thermal and evaporative moat around the test wells. Following a 4-day incubation period, the plates are read using ATPlite (50 uL added per well), which quantifies the amount of ATP (a measure of cell health) present in each well. Assay plates are read using the Envision luminometer. In parallel, cytotoxicity is examined on an additional 96-well plate treated in an identical manner, but substituting the 25 μL of viral stock for 25 μL of growth media. […] EC50 ranges are as follows: A <0.4 μM; B 0.4-0.8 μM; C >0.8 μM.

Compared with `Cc1cccc(F)c1NC(=O)c1cc2c(s1)-c1ccccc1N(C(=O)c1cccc(NC3CCS(=O)(=O)CC3)n1)CC2` [Example 454], `Cc1cccc(F)c1NC(=O)c1cc2c(s1)-c1ccccc1N(C(=O)c1cccc(NC[C@H]3CCCO3)n1)CC2` [Example 460] is lower in EC50: over 800 nM for the first, under 400 nM for the second. The second is the more potent here.

Compared with `O=C(NC1CNC1)c1cc2c(s1)-c1ccccc1N(C(=O)c1cccc(-c3c[nH]nc3C3CC3)n1)CC2` [Example 182], `Cc1cccc(F)c1NC(=O)c1cc2c(s1)-c1ccccc1N(C(=O)c1cccc(-c3c[nH]nc3C3CC3)n1)CC2` [Example 196] is lower in EC50: over 800 nM for the first, under 400 nM for the second. The second is the more potent here.

`CCN(CCOC)c1cccc(C(=O)N2CCc3cc(C(=O)Nc4c(C)cccc4F)sc3-c3ccccc32)n1` [Example 348] and `COCC(C)(C)CNc1cccc(C(=O)N2CCc3cc(C(=O)Nc4c(C)cccc4F)sc3-c3ccccc32)n1` [Example 421] cannot be ordered by EC50: under 400 nM for the first, under 400 nM for the second.

First: COc1ccc(-c2cccc(C(=O)N3CCc4cc(C(=O)NC5CC5)sc4-c4ccccc43)c2)cn1 [Example 6]
Second: N#Cc1ccc(-c2cccc(C(=O)N3CCc4cc(C(=O)NC5CC5)sc4-c4ccccc43)c2)cc1 [Example 7]
The EC50 of the first is higher: over 800 nM for the first, 400 to 800 nM for the second.

Compared with `O=C(NC1CC1)c1cc2c(s1)-c1ccccc1N(C(=O)c1cccc(N3CCC4(CCOCC4)CC3)n1)CC2` [Example 26], `O=C(NC1CC1)c1cc2c(s1)-c1ccccc1N(C(=O)c1cccc(N3CCOCC4(CCOCC4)C3)n1)CC2` [Example 284] is lower in EC50: 400 to 800 nM for the first, under 400 nM for the second. The second is the more potent here.

Compared with `O=C(NC1CC1)c1cc2c(s1)-c1ccccc1N(C(=O)c1cccc(N3CCOCC(C(=O)N4CCOCC4)C3)n1)CC2` (stereo not drawn) [Example 285], `O=C(NC1CC1)c1cc2c(s1)-c1ccccc1N(C(=O)c1cccc(N3CCOCC3)n1)CC2` [Example 16] is lower in EC50: over 800 nM for the first, 400 to 800 nM for the second.

First: Cc1cccc(F)c1NC(=O)c1cc2c(s1)-c1ccccc1N(C(=O)c1cccc(NCC(C)(C)S(C)(=O)=O)n1)CC2 [Example 465]
Second: Cc1cccc(F)c1NC(=O)c1cc2c(s1)-c1ccccc1N(C(=O)c1cccc(NCCOC(C)C)n1)CC2 [Example 331]
The EC50 of the first is higher: 400 to 800 nM for the first, under 400 nM for the second.

`Cc1cccc(F)c1NC(=O)c1cc2c(s1)-c1ccccc1N(C(=O)c1cccc(NCc3ccco3)n1)CC2` [Example 335] and `Cc1cccc(F)c1NC(=O)c1cc2c(s1)-c1ccccc1N(C(=O)c1cccc(-c3coc4ccccc34)n1)CC2` [Example 256] cannot be ordered by EC50: under 400 nM for the first, under 400 nM for the second.

Compared with `Cc1cccc(F)c1NC(=O)c1cc2c(s1)-c1ccccc1N(C(=O)c1cccc(-n3cc(S(C)(=O)=O)cn3)n1)CC2` [Example 144], `Cc1cccc(F)c1NC(=O)c1cc2c(s1)-c1ccccc1N(C(=O)c1cccc(-c3cn[nH]c3)n1)CC2` [Example 213] is lower in EC50: over 800 nM for the first, under 400 nM for the second.

`O=C(NC1CC1)c1cc2c(s1)-c1ccccc1N(C(=O)c1cccc(Nc3cccc4c3C(=O)NC4)n1)CC2` [Example 411] and `COc1ncccc1Nc1cccc(C(=O)N2CCc3cc(C(=O)NC4CC4)sc3-c3ccccc32)n1` [Example 410] cannot be ordered by EC50: over 800 nM for the first, over 800 nM for the second.

`Cc1cccc(F)c1NC(=O)c1cc2c(s1)-c1ccccc1N(C(=O)c1cccc(N3CCOc4c(F)cccc4C3)n1)CC2` [Example 365] and `Cc1cccc(F)c1NC(=O)c1cc2c(s1)-c1cc(F)ccc1N(C(=O)c1cccc(N3CCOc4ccccc4C3)n1)CC2` [Example 395] cannot be ordered by EC50: under 400 nM for the first, under 400 nM for the second.

`Cc1cccc(F)c1NC(=O)c1cc2c(s1)-c1ccccc1N(C(=O)c1cccc(-c3ccc4c(c3)COC4)n1)CC2` [Example 192] and `Cc1cccc(F)c1NC(=O)c1cc2c(s1)-c1ccccc1N(C(=O)c1cccc(-c3ccc4c(c3)CNC4=O)n1)CC2` [Example 194] fall in the same range of EC50: 400 to 800 nM for the first, 400 to 800 nM for the second.

Going from `COC(=O)n1cc(-c2cccc(C(=O)N3CCc4cc(C(=O)Nc5c(C)cccc5F)sc4-c4ccccc43)n2)c(C2CC2)n1` [Example 214] to `COCCn1cc(-c2cccc(C(=O)N3CCc4cc(C(=O)Nc5c(C)cccc5F)sc4-c4ccccc43)n2)c(C2CC2)n1` [Example 226], the EC50 rises from under 400 nM to over 800 nM.

`O=C(NC1CC1)c1cc2c(s1)-c1ccccc1N(C(=O)c1cccc(-c3ccnc4ccccc34)n1)CC2` [Example 152] and `Cn1ccc(-c2cccc(C(=O)N3CCc4cc(C(=O)NC5CC5)sc4-c4ccccc43)n2)cc1=O` [Example 162] cannot be ordered by EC50: over 800 nM for the first, over 800 nM for the second.

Compared with `O=C(NC1CC1)c1cc2c(s1)-c1ccccc1N(C(=O)c1ccc3ccc(N4CCOCC4)nc3c1)CC2` [Example 297], `O=C(NC1CC1)c1cc2c(s1)-c1ccccc1N(C(=O)c1cccc(-c3ccc(N4CCOCC4)nc3)n1)CC2` [Example 89] is lower in EC50: over 800 nM for the first, 400 to 800 nM for the second.

Going from `Cc1cccc(F)c1NC(=O)c1cc2c(s1)-c1ccc(F)cc1N(C(=O)c1cccc(N3C(=O)CC[C@@H]3CN)n1)CC2` [Example 492] to `COC[C@@H]1CCCN1c1cccc(C(=O)N2CCc3cc(C(=O)Nc4c(C)cccc4F)sc3-c3ccccc32)n1` [Example 505], the EC50 falls from over 800 nM to under 400 nM. The second is the more potent here.

`Cc1cccc(F)c1NC(=O)c1cc2c(s1)-c1ccccc1N(C(=O)c1cccc(N3CCC[C@@H]3c3ccccc3)n1)CC2` [Example 473] and `Cc1cccc(F)c1NC(=O)c1cc2c(s1)-c1ccccc1N(C(=O)c1cccc(-n3ccnc3C3CC3)n1)CC2` [Example 146] cannot be ordered by EC50: under 400 nM for the first, under 400 nM for the second.

`Cc1cccnc1NC(=O)c1cc2c(s1)-c1ccccc1N(C(=O)c1cccc(N3CCOc4ccccc4C3)n1)CC2` [Example 301] and `O=C(NC1CCOCC1)c1cc2c(s1)-c1ccccc1N(C(=O)c1cccc(N3CCOc4ccccc4C3)n1)CC2` [Example 307] cannot be ordered by EC50: under 400 nM for the first, under 400 nM for the second.

`Cc1cccc(F)c1NC(=O)c1cc2c(s1)-c1ccccc1N(C(=O)c1cccc(N(CCO)C3CCC3)n1)CC2` [Example 327] and `Cc1cccc(F)c1NC(=O)c1cc2c(s1)-c1ccccc1N(C(=O)c1cccc(-c3cncn3C3CCC3)n1)CC2` [Example 199] cannot be ordered by EC50: under 400 nM for the first, under 400 nM for the second.

`Cc1cccc(F)c1NC(=O)c1cc2c(s1)-c1ccccc1N(C(=O)c1cccc(N3CCCCC(F)(F)C3)n1)CC2` [Example 445] and `Cc1cccc(F)c1NC(=O)c1cc2c(s1)-c1ccccc1N(C(=O)c1cccc(N3CCCOC(C)(C)C3)n1)CC2` [Example 402] cannot be ordered by EC50: under 400 nM for the first, under 400 nM for the second.

Compared with `COc1ccc(C(=O)N2CCc3cc(C(=O)NC4CC4)sc3-c3ccccc32)nc1N1CCOCC1` [Example 39], `O=C(NC1CC1)c1cc2c(s1)-c1ccccc1N(C(=O)c1cncc(N3CCOCC3)n1)CC2` [Example 53] is lower in EC50: over 800 nM for the first, 400 to 800 nM for the second.

First: Cc1cccc(F)c1NC(=O)c1cc2c(s1)-c1ccccc1N(C(=O)c1cccc(-c3cncn3C3CC3)n1)CC2 [Example 233]
Second: COc1ccn(-c2cccc(C(=O)N3CCc4cc(C(=O)Nc5c(C)cccc5F)sc4-c4ccccc43)n2)c(=O)c1 [Example 415]
The EC50 of the first is lower: under 400 nM for the first, over 800 nM for the second. The first is the more potent here.

Compared with `Cc1cccc(F)c1NC(=O)c1cc2c(s1)-c1ccccc1N(C(=O)c1cccc(N3CCCN(C(=O)OC(C)(C)C)CC3)n1)CC2` [Example 380], `Cc1cccc(F)c1NC(=O)c1cc2c(s1)-c1ccccc1N(C(=O)c1ccc(NC(=O)N3CCCOCC3)cc1)CC2` [Example 131] is higher in EC50: under 400 nM for the first, over 800 nM for the second. The first is the more potent here.

First: O=C(NC1CC1)c1cc2c(s1)-c1ccccc1N(C(=O)c1cccc(-c3cccc(C(=O)N4CCOCC4)c3)n1)CC2 [Example 69]
Second: Cc1cccc(F)c1NC(=O)c1cc2c(s1)-c1ccccc1N(C(=O)c1cccc(-c3ccc4[nH]c(=O)ccc4c3)n1)CC2 [Example 190]
The EC50 of the first is higher: 400 to 800 nM for the first, under 400 nM for the second.
